Our source for the solubility and IC50 values is patent publication US9227962B2, “Heterocyclic substituted-3-heteroarylidenyl-2-indolinone derivative” (Dainippon Sumitomo Pharma Co., Ltd., priority 2013, dated 2016).

The nature of data set [1]: solubility in buffer solution, HPLC. The following applies: kinetic from dmso stock. The format is physicochemical. As for the experimental part: A solution of compounds (10 mM in dimethylsulfoxide, 2 μL) was diluted with 50% acetonitrile (198 μL), and this solution was used as a standard solution.
On the other hand, a solution of compounds (10 mM in dimethylsulfoxide, 15 μL) was transferred to a 96 well plate, then solvent was removed in vacuo. Dimethyl sulfoxide (3 μL) was added to dissolve a residual solid, and then buffer solution (pH7.4 or 1.2, 300 μL) was added. The mixture was vigorously stirred for 90 min, then leave it for 16-20 h. An insoluble material was removed, then the solution was analyzed by HPLC. The concentration of compound, which was corresponding to a solubility of the compound, was determined by the comparison with area value between sample and the standard solution.

The test system of the next data set is FaDu. Kind of data set: colony formation assay (cell viability determination). It counts as cell-based. Particulars: Homo sapiens; FaDu cells, colonies counted after 7-10 days; read-out: colonyformation IC50. As for the experimental part:
Cell Culture: FaDu (ATCC, Manassas, Va.) was maintained in Dulbecco's Modified Eagle Medium (DMEM) (Invitrogen, Carlsbad, Calif.) supplemented with 10% fetal bovine serum (FBS) (Gemini Bio-Products, West Sacramento, Calif.) and 5% penicillin/streptomycin/amphotercin B (Invitrogen).
Cell Viability Determination: For colony formation assay, cells were plated in 6 well plates at 2000 cells per well. Twenty-four hours after plating, cells were treated with compound. Colonies were allowed to develop for 7-10 days, at which they were stained with modified Giemsa stain (Sigma). Stained colonies were then counted to determine IC50.

The subject of data set [2] is CD44high FaDu cancer stem cells. Kind of data set: sphere assay (sphere formation of CSC). It counts as cell-based. The following applies: Homo sapiens, spheres scored after 10-14 days. The text has this: CSC isolation with surface markers: Sorting tumor cells based primarily upon the differential expression of the surface marker(s), such as CD44 or CD133, have accounted for the majority of the highly tumorigenic CSCs described to date. CD44^high cells were isolated by FACS according to the methods described in Ponti et al, with slight modification [Ponti, D., et al, Isolation and in vitro propagation of tumorigenic breast cancer cells with stem/progenitor cell properties. Cancer Res, 2005. 65(13); p. 5506-11.], Briefly, after trypsinization and recovery of cells for 30 minutes at 37° C. in growth media, cells were pelleted at 400×g and were resuspended in PBS with 2% FBS and ImM EDTA at 1×10^6 cells/mL. Cells were then incubated on ice with a 1:100 dilution of CD44-FITC (BD Biosicences, San Diego, Calif.) for 15 minutes. Alternatively, CD24-PE (BD Bioscences, San Diego, Calif.) (1:100) was utilized for negative selection. After washing three times, cells were resuspended at […] and passed through a […] before sorting.
Sphere assay: A reliable method of measuring the self-renewal capacity of cell population if the ability to be cultured as spheres in the absence of serum or attachment. CD44^high FaDu cancer stem cells were cultured in ultra low attachment plates in cancer stem cell media (DMEM/F12, B27 Neurobasal supplement, 20 ng/ml EGF, 10 ng/rnl FGF, 4 µg/ml insulin, and 0.4% BSA) to allow spheres formation. Typically, sphere formation was evaluated by microscopy after 10-14 days in culture and spheres with >50 cells were scored.

Where [3] appears, read: aqueous buffer, buffer solution pH 7.4, read-out: solubility pH 7.4.
Where [4] appears, read: simulated gastric fluid, buffer solution pH 1.2, read-out: solubility pH 1.2.

Values after ≈ are worked out from the molar mass of the structure shown. Like-named read-outs stand apart in the source and are kept apart here.

For `CCN(CC)CCNC(=O)c1c(C)[nH]c(/C=C2\C(=O)Nc3ccc(-c4cc(-c5ccccc5)nn4C)cc32)c1C` [Example 55], the figures for the solubility in data set [1] (setting [3]) and in data set [1] (setting [4]) were 0.5 µg/mL (≈ 0.932 µM) and 43 µg/mL (≈ 80.1 µM), respectively.
The like results for `CCN(CC)CCNC(=O)c1c(C)[nH]c(/C=C2\C(=O)Nc3ccc(-c4nnc(-c5ccccc5)o4)cc32)c1C` [Example 53] were, in that order, 61 µg/mL (≈ 116 µM) and above 200 µg/mL.
As to `Cc1[nH]c(/C=C2\C(=O)Nc3ccc(-c4cnn(-c5ccccn5)c4)cc32)c(C)c1C(=O)N1CCOCC1` [Example 30], the IC50 in the data set on FaDu was above 100 µM.
Take `CCN(CC)CCNC(=O)c1c(C)[nH]c(/C=C2\C(=O)Nc3ccc(C4CCN(c5ncccn5)CC4)cc32)c1C` [Example 43]: the solubility was 0.4 µg/mL (≈ 0.738 µM) in data set [1] (setting [3]) and 163 µg/mL (≈ 301 µM) in data set [1] (setting [4]). The molecule further had a concentration for half-maximal inhibition (IC50) in data set [2] of 1.9 µM.
With `Cc1[nH]c(/C=C2\C(=O)Nc3ccc(-c4cnn(-c5ccccn5)c4)cc32)c(C)c1C(=O)N1CCN(C)CC1` [Example 31], the IC50 in data set [2] is 0.2 µM.
In the case of `CCN(CC)CCNC(=O)c1c(C)[nH]c(/C=C2\C(=O)Nc3ccc(-c4nnc(-c5ccccc5)s4)cc32)c1C` [Example 52], the solubility was 4 µg/mL (≈ 7.4 µM) in data set [1] (setting [3]) and 163 µg/mL (≈ 301 µM) in data set [1] (setting [4]).
In the case of `CCN(CC)CCNC(=O)c1c(C)[nH]c(/C=C2\C(=O)Nc3ccc(-c4nc(-c5ccccc5)cs4)cc32)c1C` [Example 51, (Z)—N-(2-(diethylamino)ethyl)-2,4-dimethyl-5-((2-oxo-5-(4-phenylthiazol-2-yl)indolin-3-ylidene)methyl)-1H-pyrrole-3-carboxamide], the solubility in data set [1] (setting [3]) is below 0.5 µg/mL; in data set [1] (setting [4]), above 200 µg/mL.
For the molecule `CCN(CC)CCNC(=O)c1c(C)[nH]c(/C=C2\C(=O)Nc3ccc(C4CCN(C5CCN(C(C)=O)CC5)CC4)cc32)c1C` [Example 45], the IC50 in data set [2] was above 50 µM.
Regarding `CCN(CC)CCNC(=O)c1c(C)[nH]c(/C=C2\C(=O)Nc3ccc(-c4ccc(-c5cccnc5)s4)cc32)c1C` [Example 26], the solubility in data set [1] (setting [3]) was below 0.5 µg/mL; in data set [1] (setting [4]), above 200 µg/mL.
Consider `CCN(CC)CCNC(=O)c1c(C)[nH]c(/C=C2\C(=O)Nc3ccc(-n4cc(-c5ccccc5)nn4)cc32)c1C` [Example 49], for which the solubility in data set [1] (setting [3]) is 13 µg/mL (≈ 24.8 µM); in data set [1] (setting [4]) it was 109 µg/mL (≈ 208 µM).
With `Cc1nc(-c2ccccc2)oc1-c1ccc2c(c1)NC(=O)/C2=C\c1[nH]c(C)c(C(=O)N2CCN(C)CC2)c1C` [Example 38], the figures for the IC50 (in data set [2]; with FaDu) were 2 µM and 6.2 µM, respectively.
Turning to `CCN(CC)CCNC(=O)c1c(C)[nH]c(/C=C2\C(=O)Nc3ccc(-c4cnc(-c5ccccc5)[nH]4)cc32)c1C` [Example 41], the solubility in data set [1] (setting [3]) is 0.3 µg/mL (≈ 0.574 µM); in data set [1] (setting [4]), 186 µg/mL (≈ 356 µM).
With `CCN(CC)CCNC(=O)c1c(C)[nH]c(/C=C2\C(=O)Nc3ccc(-c4cn(-c5ccccc5)nn4)cc32)c1C` [Example 48], the solubility in data set [1] (setting [3]) is below 0.3 µg/mL; in data set [1] (setting [4]), 147 µg/mL (≈ 281 µM).
On to `CCN(CC)CCNC(=O)c1c(C)[nH]c(/C=C2\C(=O)Nc3ccc(-c4nc(-c5ccccc5)n[nH]4)cc32)c1C` [Example 50], for which the solubility in data set [1] (setting [3]) was 7 µg/mL (≈ 13.4 µM); in data set [1] (setting [4]), 154 µg/mL (≈ 294 µM).
`CCN(CC)CCNC(=O)c1c(C)[nH]c(/C=C2\C(=O)Nc3ccc(C4CCN(c5ccccc5)CC4)cc32)c1C` [Example 42]: the solubility in data set [1] (setting [3]) was 11 µg/mL (≈ 20.4 µM); in data set [1] (setting [4]) it was above 200 µg/mL.
As to `CCN(CC)CCNC(=O)c1c(C)[nH]c(/C=C2\C(=O)Nc3ccc(C4CCN(C5CCOCC5)CC4)cc32)c1C` [Example 12], the solubility in data set [1] (setting [3]) and in data set [1] (setting [4]) was above 200 µg/mL throughout. This molecule returned an IC50 in data set [2] above 50 µM.

By solubility is commonly meant how much of the substance goes into solution per volume. By IC50 is commonly meant the concentration needed to halve the response being measured.
